Experimental data as given in patent EP0206138A1, “Anthracycline compounds, a process for their preparation and their use as medicaments” (priority 1985, dated 1986).
Values after ≈ are worked out from the molar mass of the structure shown. Values joined by “and” are separate entries in the source; they are usually repeats but may differ in a detail not shown here. Identical values can stand only once. Like-named read-outs stand apart in the source and are kept apart here.

What was measured:
L1210 leukemia cells = test: Anti-tumor activity: L1210 leukemia transplanted intraperitoneally into CDF1 mice, life prolongation; format: in vivo; settings: for percentage life prolongation (T/C%): saline control = 100; for intoxication: L1210-bearing CDF1 mice
Experimental: L1210 leukemia cells (1 x 10^5 per animal) were transplanted intraperitoneally into CDF1 mice. Immediately after the transplantation, 0.25 ml of a selected test compound in solution was administered intraperitoneally in accordance with the schedule shown below. The anti-tumor activities of the test compounds in terms of percentage life prolongation (T/C%) are listed in the same table, with the number of days of survival of control mice to which physiological saline had been administered being taken as 100 (day 0 means the day of L1210 transplantation).

P388 leukemia cells = test: Cytotoxicity on tissue culture: growth inhibition of cultured P388 leukemia cells; format: cell-based
Description: (1) Cytotoxicity (on tissue culture)
The barminomycin compounds of the present invention were capable of inhibiting the growth of cultured P388 leukemia cells in very low concentrations. […] For further detail, see the following table.

E. coli BE1121 = test: Antimicrobial activity, MIC by agar dilution method; format: cell-based
Experimental: (§1) The antimicrobial activities of barminomycin I and Ir of the present invention, and that of carminomycin III were determined by the agar dilution method.

S. aureus Smith = test: as above; format: cell-based
Experimental: as §1

E. coli K-12 = test: as above; format: cell-based; settings: E. coli K-12, agar dilution method
Experimental: as §1

[1] = test system: Pseudomonas aeruginosa A3; test: as above; format: cell-based
Experimental: as §1

E. coli NIHJ = test: as above; format: cell-based
Experimental: as §1

S. aureus MS9610 = test: as above; format: cell-based
Experimental: as §1

[2] = test system: Staphylococcus aureus FAD 209P; test: as above; format: cell-based
Experimental: as §1

Proteus vulgaris OX19 = test: as above; format: cell-based
Experimental: as §1

[3] = test system: Bacillus subtilis PCI 219; test: as above; format: cell-based; settings: Bacillus subtilis PCI 219, agar dilution method
Experimental: as §1

S. aureus MS8710 = test: as above; format: cell-based
Experimental: as §1

E. coli BE1186 = test: as above; format: cell-based
Experimental: as §1

[4] = test system: Klebsiella p eumoniae PCI 602; test: as above; format: cell-based; settings: Klebsiella p eumoniae PCI 602, agar dilution method
Experimental: as §1

[5] = test system: Micrococcus Lysodeikticus IFO 3333; test: as above; format: cell-based; settings: Micrococcus Lysodeikticus IFO 3333, agar dilution method
Experimental: as §1

Serratia marcescens = test: as above; format: cell-based
Experimental: as §1

[6] = test system: Mycobacterium smegmatis 607; test: as above; format: cell-based; settings: Mycobacterium smegmatis 607, agar dilution method
Experimental: as §1

[7] = 0.0078 µg/mouse/day intraperitoneally, 0 - 10 days (daily)
[8] = 0.0157 µg/mouse/day intraperitoneally, 0 - 10 days (daily)
[9] = 0.0625 µg/mouse/day intraperitoneally, 0 - 10 days (daily)
[10] = 0.125 µg/mouse/day intraperitoneally, 0 - 10 days (daily)
[11] = 0.25 µg/mouse/day intraperitoneally, 0 - 10 days (daily)
[12] = 1.25 µg/mouse/day intraperitoneally, 0 - 9 days (daily)
[13] = 2.5 µg/mouse/day intraperitoneally, 0 - 9 days (daily)
[14] = 5 µg/mouse/day intraperitoneally, 0 - 9 days (daily)
[15] = 10 µg/mouse/day intraperitoneally, 0 - 9 days (daily)
[16] = 20 µg/mouse/day intraperitoneally, 0 - 9 days (daily)
[17] = 40 µg/mouse/day intraperitoneally, 0 - 9 days (daily)

CC(=O)C1(O)Cc2c(O)c3c(c(O)c2C(OC2CC4N=CC(C)OC(CC(C)O)OC4C(C)O2)C1)C(=O)c1c(O)cccc1C3=O (single isomer, unassigned) [Barminomycin II]
percentage life prolongation (T/C%) (L1210 leukemia cells; [7]): >500%, >500%
percentage life prolongation (T/C%) (L1210 leukemia cells; [8]): 120%
intoxication (L1210 leukemia cells; [9]): tendency of intoxication
intoxication (L1210 leukemia cells; [10]): tendency of intoxication
percentage life prolongation (T/C%) (L1210 leukemia cells; [10]): 173%
intoxication (L1210 leukemia cells; [11]): Intoxicated to death at 4 days, and 5 days
percentage life prolongation (T/C%) (L1210 leukemia cells; 0.313 µg/mouse/day intraperitoneally, 0 - 10 days (daily)): 140%
IC50 (P388 leukemia cells): ~ 0.00002 µg/mℓ

CC(=O)C1(O)Cc2c(O)c3c(c(O)c2C(OC2CC4NCC(C)OC(CC(C)O)OC4C(C)O2)C1)C(=O)c1c(O)cccc1C3=O (single isomer, unassigned) [Barminomycin IIr]
percentage life prolongation (T/C%) (L1210 leukemia cells; [12]): 123%
percentage life prolongation (T/C%) (L1210 leukemia cells; [13]): 129%
percentage life prolongation (T/C%) (L1210 leukemia cells; [14]): 123%
percentage life prolongation (T/C%) (L1210 leukemia cells; [15]): 86%
intoxication (L1210 leukemia cells; [16]): Intoxication
percentage life prolongation (T/C%) (L1210 leukemia cells; [16]): 43%
intoxication (L1210 leukemia cells; [17]): Intoxication
percentage life prolongation (T/C%) (L1210 leukemia cells; [17]): 37%
IC50 (P388 leukemia cells): 0.002 µg/mL (≈ 0.00312 µM)

CC(=O)C1(O)Cc2c(O)c3c(c(O)c2C(OC2CC4NCC(C)OC(CC(C)O)OC4C(C)O2)C1)C(=O)c1c(O)cccc1C3=O (single isomer, unassigned) [Barminomycin Ir]
percentage life prolongation (T/C%) (L1210 leukemia cells; [12]): 97%
percentage life prolongation (T/C%) (L1210 leukemia cells; [13]): 129%
percentage life prolongation (T/C%) (L1210 leukemia cells; [14]): 141%
intoxication (L1210 leukemia cells; [15]): Tendency of intoxication
percentage life prolongation (T/C%) (L1210 leukemia cells; [15]): 49%
intoxication (L1210 leukemia cells; [16]): Intoxication
percentage life prolongation (T/C%) (L1210 leukemia cells; [16]): 37%
intoxication (L1210 leukemia cells; [17]): Intoxication
percentage life prolongation (T/C%) (L1210 leukemia cells; [17]): 25%
MIC (E. coli BE1121): 0.2 µg/mL (≈ 0.312 µM)
MIC (S. aureus Smith): 0.78 µg/mL (≈ 1.22 µM)
MIC (E. coli K-12): 6.25 µg/mL (≈ 9.74 µM)
MIC [1]: 12.5 µg/mL (≈ 19.5 µM)
MIC (E. coli NIHJ): 50 µg/mL (≈ 77.9 µM)
MIC (S. aureus MS9610): 1.56 µg/mL (≈ 2.43 µM)
MIC [2]: 0.78 µg/mL (≈ 1.22 µM)
MIC (Proteus vulgaris OX19): >50 µg/mL
MIC [3]: 0.39 µg/mL (≈ 0.608 µM)
MIC (S. aureus MS8710): 1.56 µg/mL (≈ 2.43 µM)
MIC (E. coli BE1186): 0.2 µg/mL (≈ 0.312 µM)
MIC [4]: 6.25 µg/mL (≈ 9.74 µM)
MIC [5]: 0.78 µg/mL (≈ 1.22 µM)
MIC (Serratia marcescens): 3.12 µg/mL (≈ 4.86 µM)
MIC [6]: 6.25 µg/mL (≈ 9.74 µM)
IC50 (P388 leukemia cells): 0.0015 µg/mL (≈ 0.00234 µM)

COc1cccc2c1C(=O)c1c(O)c3c(c(O)c1C2=O)C[C@@](O)(C(=O)CO)C[C@@H]3O[C@H]1C[C@H](N)[C@H](O)[C@H](C)O1 [Adriamycin, adriamycin, reference compound]
IC50 (P388 leukemia cells; Mus musculus, read-out: IC50): 0.013 µg/mL (≈ 0.0239 µM)

CC(=O)C1(O)Cc2c(O)c3c(c(O)c2C(OC2CC4N=CC(C)OC(CC(C)O)OC4C(C)O2)C1)C(=O)c1c(O)cccc1C3=O (centres unmarked) [Barminomycin I]
percentage life prolongation (T/C%) (L1210 leukemia cells; [7]): 160%
percentage life prolongation (T/C%) (L1210 leukemia cells; [8]): 187% and 120%
percentage life prolongation (T/C%) (L1210 leukemia cells; [9]): 213% and 147%
intoxication (L1210 leukemia cells; [10]): tendency of intoxication
percentage life prolongation (T/C%) (L1210 leukemia cells; [10]): 147%
intoxication (L1210 leukemia cells; [11]): Intoxicated to death at 4 days
percentage life prolongation (T/C%) (L1210 leukemia cells; [11]): 120%
MIC (E. coli BE1121): <0.1 µg/mL
MIC (S. aureus Smith): 0.2 µg/mL (≈ 0.313 µM)
MIC (E. coli K-12): 0.78 µg/mL (≈ 1.22 µM)
MIC [1]: 1.56 µg/mL (≈ 2.44 µM)
MIC (E. coli NIHJ): 3.12 µg/mL (≈ 4.88 µM)
MIC (S. aureus MS9610): 0.2 µg/mL (≈ 0.313 µM)
MIC [2]: 0.2 µg/mL (≈ 0.313 µM)
MIC (Proteus vulgaris OX19): 3.12 µg/mL (≈ 4.88 µM)
MIC [3]: <0.1 µg/mL
MIC (S. aureus MS8710): 0.2 µg/mL (≈ 0.313 µM)
MIC (E. coli BE1186): <0.1 µg/mL
MIC [4]: 0.39 µg/mL (≈ 0.61 µM)
MIC [5]: 0.2 µg/mL (≈ 0.313 µM)
MIC (Serratia marcescens): 0.78 µg/mL (≈ 1.22 µM)
MIC [6]: 0.78 µg/mL (≈ 1.22 µM)
IC50 (P388 leukemia cells): ~ 0.00001 µg/mℓ

CC(=O)[C@]1(O)Cc2c(O)c3c(c(O)c2[C@@H](O[C@H]2C[C@H](N)[C@H](O)[C@H](C)O2)C1)C(=O)c1c(O)cccc1C3=O [Carminomycin I, carminomycin I, reference compound]
IC50 (P388 leukemia cells; Mus musculus, read-out: IC50): 0.002 µg/mL (≈ 0.00389 µM)

CC(=O)C1(O)Cc2c(O)c3c(c(O)c2C(OC2CC(N)C(OC(CC(C)O)OC(C)CO)C(C)O2)C1)C(=O)c1c(O)cccc1C3=O (centres unmarked) [Carminomycin II, carminomycin II, reference compound]
IC50 (P388 leukemia cells): 0.010 µg/mL (≈ 0.0152 µM)

carminomycin III [reference compound]
MIC (E. coli BE1121): 1.56 µg/mL
MIC (S. aureus Smith): 3.12 µg/mL
MIC (E. coli K-12): >50 µg/mL
MIC [1]: >50 µg/mL
MIC (E. coli NIHJ): >50 µg/mL
MIC (S. aureus MS9610): 1.56 µg/mL
MIC [2]: 3.12 µg/mL
MIC (Proteus vulgaris OX19): >50 µg/mL
MIC [3]: 1.56 µg/mL
MIC (S. aureus MS8710): 1.56 µg/mL
MIC [4]: 50 µg/mL
MIC [5]: 1.56 µg/mL
MIC (Serratia marcescens): 25 µg/mL
MIC [6]: 6.25 µg/mL
IC50 (P388 leukemia cells): 0.006 µg/mL
